Data on 26 compounds can be found in patent US20070244155A1 (AMGEN INC., priority 2006, published 2007).

For this test, the target named is T1, human GPR40 (Homo sapiens, UniProt O14842).
T1 construct: expressed in transfected cells; host or cells: CHO cells
T1 sequence (O14842 whole entry): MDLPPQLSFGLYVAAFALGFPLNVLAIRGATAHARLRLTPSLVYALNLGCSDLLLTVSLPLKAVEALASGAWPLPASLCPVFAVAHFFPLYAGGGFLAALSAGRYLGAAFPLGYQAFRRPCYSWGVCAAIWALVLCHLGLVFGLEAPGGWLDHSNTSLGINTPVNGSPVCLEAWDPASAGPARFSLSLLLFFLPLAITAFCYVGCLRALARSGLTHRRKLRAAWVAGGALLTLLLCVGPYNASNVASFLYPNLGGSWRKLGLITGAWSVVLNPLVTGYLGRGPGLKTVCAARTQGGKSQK
Nature of the test: Cell-based aequorin assay using human GPR40. The note with it: CHO cells transfected with GPR40 and aequorin expression vectors; aequorin luminescence; activation of human GPR40; read-out: Relative EC50. The protocol: A cell-based aequorin assay may be employed to characterize the modulatory activity of compounds on the GPR40 signaling pathway. In an exemplary assay, CHO cells are transfected in a 15 cm plated containing 14 million cells with 5 μg of GPR40 expression vector and 5 μg of Aequorin expression vector (Euroscreen) using Lipofectamine 2000 (Invitrogen). After 17-24 hours post-transfection, cells are washed with phosphate buffered saline (PBS) and detached from the tissue culture dish with 2 mL of trypsin (0.25%(w/v)). Trypsinization is halted with 28 mL of Hanks Buffered Salt Solution containing 20 mM Hepes (H/HBSS) and 0.01% fatty acid-free bovine serum albumin (BSA) or 0.625% fatty acid-free human serum albumin (HSA). Coelantrazine is added to 1 ug/mL and the cells are incubated for 2 hours at room temperature. Cells are gently mixed every 15 minutes. Compounds are dissolved in dimethyl sulfoxide for preparation of 10 mM stock solutions. Compounds are diluted in H/HBSS containing either 0.01% BSA or 0.625% HSA. Serial dilutions of the test compounds are prepared to determine dose response. Aequorin luminescence measurements are made using an EG&G Berthold 96-well luminometer and the response is measured over a 20 second interval after cells and compounds are mixed. The area-under-curve from 2-20 seconds is plotted to determine dose response. The EC50 (effective concentration to reach 50% maximal response) is determined from the dose response plot. Table 1 includes representative data (EC50 values) obtained for exemplary compounds of the invention for the relative activation of human GPR40. […] Therefore, in some embodiments, the invention provides any of the compounds listed in Table 1 individually or as members of a group and pharmaceutically acceptable salts, esters, solvates, tautomers, stereoisomers, and/or prodrugs thereof.
The EC50 is the concentration at which the effect is half-maximal. On to `O=C(O)C(F)(F)C1CCCc2cc(OCc3cccc(-c4ccc(C(F)(F)F)cc4)c3)ccc21` (centres unmarked) [Example 32, Difluoro-[6-(4′-trifluoromethyl-biphenyl-3-ylmethoxy)-1,2,3,4-tetrahydro-naphthalen-1-yl]-acetic acid], for which the EC50 lay in the range of 1000 to 10000 nM.

Turning to `Cc1ccc(-c2nc(C)c(COc3ccc4c(c3)CCCC4C(F)(F)C(=O)O)s2)cc1` (centres unmarked) [Example 33], the EC50 was in the range of 1000 to 10000 nM.

In the case of `C=C1COc2cc(OCc3sc(-c4ccc(C)cc4)nc3C)ccc2C1CC(=O)O` (centres unmarked) [Example 34, 2-(7-((4-methyl-2-p-tolylthiazol-5-yl)methoxy)-3-methylene-3,4-dihydro-2H-chromen-4-yl)acetic acid], the EC50 was less than 100 nM.

As to `C=C1COc2cc(OCc3ccc(-c4cc(C)ccc4OCCCC)cc3)ccc2[C@H]1CC(=O)O` [Example 36, [(S)-7-(2′-Butoxy-5′-methyl-biphenyl-4-ylmethoxy)-3-methylene-chroman-4-yl]-acetic acid], the EC50 is less than 100 nM.

Consider `C=C1COc2cc(OCc3ccc(-c4cc(C)ccc4OCCCC)cc3)ccc2[C@@H]1CC(=O)O` [Example 37, [(R)-7-(2′-Butoxy-5′-methyl-biphenyl-4-ylmethoxy)-3-methylene-chroman-4-yl]-acetic acid], for which the EC50 fell in the range of 100 to 1000 nM.

On to `C=C1CCc2cc(OCc3cccc(-c4ccc(C(F)(F)F)cc4)c3)ccc2C1CC(=O)O` (centres unmarked) [Example 38, 2-(6-(3-(4-Trifluoromethylphenyl)benzyloxy)-2-methylene-1,2,3,4-tetrahydronaphthalen-1-yl)acetic acid], for which the EC50 lay within 100 to 1000 nM.

As to `C/C=C1/COc2cc(OCc3ccc(-c4cc(C)ccc4OCCCC)cc3)ccc2C1CC(=O)O` (centres unmarked) [Example 41], the EC50 is 100 to 1000 nM.

Take `O=C(O)CC1COCc2cc(OCc3cccc(-c4ccc(C(F)(F)F)cc4)c3)ccc21` (centres unmarked) [Example 42, 2-(7-(3-(4-Trifluoromethylphenyl)benzyloxy)-3,4-dihydro-1H-isochromen-4-yl)acetic acid]: the EC50 fell in the range of 100 to 1000 nM.

For `Cc1ccccc1/C=C/c1ccc2c(c1)CCCC2CC(=O)O` (centres unmarked) [Example 46, [6-((E)-2-o-Tolyl-vinyl)-1,2,3,4-tetrahydro-naphthalen-1-yl]-acetic acid], the EC50 fell in the range of 1000 to 10000 nM.

Regarding `COc1ccc(/C=C/c2ccc3c(c2)CCCC3CC(=O)O)cc1` (centres unmarked) [Example 47, {6-[(E)-2-(4-Methoxy-phenyl)-vinyl]-1,2,3,4-tetrahydro-naphthalen-1-yl}-acetic acid], the 50% effective concentration (EC50) is 1000 to 10000 nM.

For the compound `O=C(O)CC1CCCc2cc(CCc3ccc(C(F)(F)F)cc3)ccc21` (centres unmarked) [Example 48, {6-[2-(4-Trifluoromethyl-phenyl)-ethyl]-1,2,3,4-terahydro-naphthalen-1-yl}-acetic acid], the EC50 lay within 1000 to 10000 nM.

On to `O=C(O)CC1CCCc2cc(CCc3ccc(-c4ccccc4)cc3)ccc21` (centres unmarked) [Example 49, [6-(2-Biphenyl-4-yl-ethyl)-1,2,3,4-tetrahydro-naphthalen-1-yl]-acetic acid], for which the 50% effective concentration (EC50) was in the range of 1000 to 10000 nM.

On to `COc1ccc(COc2ccc3c(c2)CCC(=O)N3CCC(=O)O)cc1` [Example 50, 3-[6-(4-Methoxy-benzyloxy)-2-oxo-3,4-dihydro-2H-quinolin-1-yl]-propionic acid], for which the EC50 was in the range of 1000 to 10000 nM.

As to `O=C(O)CCn1ccc2cc(OCc3cccc(-c4ccc(C(F)(F)F)cc4)c3)ccc21` [Example 51], the EC50 fell in the range of 1000 to 10000 nM.

With `O=C(O)Cn1ccc2cc(OCc3cccc(-c4ccc(C(F)(F)F)cc4)c3)ccc21` [Example 52], the EC50 was 1000 to 10000 nM.

On to `O=C(O)CCn1ccc2cc(OCc3ccccc3)ccc21` [Example 53], for which the EC50 fell in the range of 1000 to 10000 nM.

`O=C(O)c1cc2ccc(OCc3cccc(Oc4ccccc4)c3)cc2oc1=O` [Example 54, 7-(3-Phenoxybenzyloxy)-2-oxo-2H-chromene-3-carboxylic acid]: the EC50 fell in the range of 1000 to 10000 nM.

For `Cc1cc(Cl)ccc1-c1cccc(COc2ccc3c(c2)CCC[C@@H]3CC(=O)O)c1` [Example 55], the EC50 lay within 100 to 1000 nM.

Consider `Cc1nc(-c2ccc(C(F)(F)F)cc2)sc1COc1ccc2c(c1)CCC[C@@H]2CC(=O)O` [Example 56], for which the EC50 is 100 to 1000 nM.

Turning to `COc1cccc(-c2ccc(COc3ccc4c(c3)CCC[C@H]4CC(=O)O)cc2)c1` [Example 57, (S)-[6-(3′-Methoxy-biphenyl-4-ylmethoxy)-1,2,3,4-tetrahydro-naphthalen-1-yl]-acetic acid], the EC50 lay within 1000 to 10000 nM.

Take `COc1cccc(-c2ccc(COc3ccc4c(c3)CCC[C@@H]4CC(=O)O)cc2)c1` [Example 58, (R)-[6-(3′-Methoxy-biphenyl-4-ylmethoxy)-1,2,3,4-tetrahydro-naphthalen-1-yl]-acetic acid]: the EC50 lay within 1000 to 10000 nM.

As to `CCOc1ccc(F)c(-c2ccc(COc3ccc4c(c3)CCC[C@H]4CC(=O)O)cc2)c1` [Example 59, (S)-[6-(5′-Ethoxy-2′-fluoro-biphenyl-4-ylmethoxy)-1,2,3,4-tetrahydro-naphthalen-1-yl]-acetic acid], the EC50 was 1000 to 10000 nM.

For `Cc1ccc(-c2nc(C)c(COc3ccc4c(c3)OCC[C@@H](C(=O)O)C4)s2)cc1` [Example 61, 8-((4-Methyl-2-p-tolylthiazol-5-yl)methoxy)-2,3,4,5-tetrahydrobenzo[b]oxepine-4-carboxylic acid], the EC50 fell in the range of 100 to 1000 nM.

As to `O=C(O)[C@@H]1CCOc2cc(OCc3cccc(-c4ccc(C(F)(F)F)cc4)c3)ccc2C1` [Example 63], the EC50 lay in the range of 1000 to 10000 nM.

Consider `Cc1c(Cl)cccc1-c1cccc(COc2ccc3c(c2)OCC[C@@H](C(=O)O)C3)c1` [Example 64], for which the EC50 lay in the range of 100 to 1000 nM.

On to `Cc1c(Cl)cccc1-c1cccc(COc2ccc3c(c2)OCC[C@H](C(=O)O)C3)c1` [Example 65], for which the EC50 fell in the range of 1000 to 10000 nM.
